Data: patent publication US10632127B2, “Targeted notch pathway inhibitors” (Hoffmann-La Roche Inc., priority 2015, dated 2020)
Like-named read-outs stand apart in the source and are kept apart here.

Experiments:
[1] = Pharmacokinetic assessment in C57BL/6 healthy wild-type mice (i.p.); assay type: in vivo, mouse; conditions: C57BL/6 mice; for concentration at 0.5 h / concentration at 4 h / concentration at 7 h: male, mouse, ip
Procedure: (§1) For PK evaluation, the compounds were administered i.p to male C57BL/6 mice in suspension (gelatine/saline 7.5%/0.62% in water) using an administration volume of 4 mL/kg. Blood samples were collected in tubes containing EDTA, plasma was separated by centrifugation and stored at −80° C. Liver and kidney samples (˜100 mg aliquots) were homogenized in three volumes of water using Precellys tissue homogenization tubes (precellys.com). 25 μL of each tissue homogenate was further diluted with 25 μL blank plasma to produce the final tissue homogenate for extraction. All samples were analyzed using protein precipitation followed by LC-MS/MS analysis. Briefly, 50 μL plasma or final tissue homogenate were mixed with 50 μL 0.5M HClO4/acetonitrile 9/1 (containing 200 ng/mL internal standard bosentan). Samples were stirred and 300 μL water was added followed by centrifugation at 5600 rpm (4° C., 10 min). 10 μL supernatant was analyzed by LC/MS analysis. Calibration standards in plasma were prepared the same way. The LC column and conditions used were: Phenomenex, Polar RP, 4 μm, 50×2.1 mm at 0.4 mL/min flow rate with a 3 min gradient from 95% solvent A to 95% solvent B (Solvent A: Water/ACN/HCOOH, 90:10:0.1+10 mM NH4 formate; Solvent B: Water/ACN/HCOOH, 10:90:0.1+10 mM NH4 formate). Mass spectrometric conditions were: Thermo TSQ Vantage with positive heated electrospray ionization in MS/MS mode. Compounds mass transitions monitored were m/z 320.7 to 119.9. PK parameters for all studies were calculated using Phoenix WinNonlin Software.
We next determined the stability, tissue distribution and cleavage rate in plasma, liver and kidney of the designed prodrugs in non-diseased mice. In the in vivo screen, the kinetics and distribution of γ-secretase inhibitor prodrugs Ac-γ-Glu-SecrI (13a), Ac-α-Glu-SecrI (15a) and H-α-Glu-SecrI (15b) were compared with the active γ-secretase inhibitor amine-SecrI (11a). After i.p administration (10 mg/kg) in C57BL/6 mice, the disappearance of the prodrugs and the formation of the active amine-SecrI (11a) were compared in plasma, liver and kidney (Table 5). First, we determined the pharmacokinetics (PK) behavior of amine-SecrI (11a) following i.p. administration (Table 5A). […] Liver and kidney exposure were much higher, with approximately 4.5-fold higher exposure in liver compared to kidney. […] The selectivity towards kidney appeared to decrease over time, probably due to fast clearance and re-equilibration of the amine-SecrI (11a). However, the high selectivity at earlier time-points assured that the total exposure over time was much higher in the kidney compared to the liver.

[2] = Distribution in plasma, liver and kidney in the aristolochic acid mouse model (repeated i.p.); assay type: in vivo; conditions: for concentration at 13 h: male, C57BL/6, mouse, ip, 10 mg/kg
Procedure: as §1
All experiments with animals were conducted in accordance with federal and local regulation at the respective study location. Kidney injury was induced by intraperitoneal (i.p). injection of aristolochic acid (AA, Sigma-Aldrich, 1×5 mg/kg) in 10 weeks old BALB/c male mice. The γ-secretase inhibitors prodrugs were diluted in NaCl 0.9% and administered i.p., starting one day before the injection of AA (day −1) and then twice daily until day 6 evening (n=5 mice/experimental group). […] The kidneys were cut in four fragments. One fragment was immediately frozen in liquid nitrogen, one fragment was included in OCT (Tissue-Tek, VWR International, Switzerland) and frozen, one fragment was frozen at −80° C. and one fragment was fixed in 4% paraformaldehyde and included in paraffin.
To investigate potential nephroprotective effects of Notch blockade using γ-secretase inhibition and to evaluate the effects of our enzyme-targeted prodrug strategy, we used the in vivo AA mouse model of acute renal tubular damage. […]
Plasma and tissue concentrations of administered compound (Table 6A-C) and formed free γ-secretase inhibitor (8) (Table 6A) or amine-SecrI (11a) (Table 6B-C) were determined following 8-day repeated i.p. administration at 10 mg/kg b.i.d. (Table 6A) or 30 mg/kg b.i.d. […] Numbers in parentheses represent relative amounts with the exposure of 11a in kidney arbitrarily set at each time point to 100%. […] BQL=below quantifiable limit.

[3] = Pharmacokinetic assessment in male Wistar rats (i.v.); assay type: in vivo, rat; conditions: 13a 1.6 mg/kg i.v.
Procedure: as §1
We next determined the stability, tissue distribution and cleavage rate in plasma, liver and kidney of the designed prodrugs in male Wistar rats. In the in vivo screen, the kinetics and distribution of the prodrugs Ac-γ-Glu-SecrI (13a) and Ac-γ-Glu-O-SecrI (13c) were compared with the active γ-secretase inhibitor SecrI (8). After i.v. administration in male Wistar rats, the disappearance of the prodrugs and the formation of the active amine-SecrI (11a), amine-O-SecrI (11b) and SecrI (8) were compared in plasma, liver and kidney (Table 7A-C). First, we determined the pharmacokinetics (PK) behavior of SecrI (8) following i.v. administration (Table 7A). […] Liver and kidney exposure were much higher, with same exposure in liver and kidney. […] The selectivity towards kidney stayed constant over time. The carbonate analogue Ac-γ-Glu-O-SecrI (13c) prodrug was converted to a lower extent than the Ac-γ-Glu-SecrI (13a) to amine-O-SecrI (11b) but more to the linker free γ-secretase inhibitor 8 (Table 7C).
Plasma and tissue concentrations of administered compound (A-C) and formed amine-SecrI (11a), amine-O-SecrI (11b) or SecrI (8) (B-C) were determined following i.v. administration in rats (no standard deviation given due to sparse sampling; n≤3 rats per time point). Numbers in parentheses represent relative amounts with the exposure of kidney arbitrarily set at each time point to 100%. […] BQL=below quantifiable limit.

[4] = AA-exposed mice, 11a 10 mg/kg b.i.d. i.p. repeated, 13 h
[5] = mice, 13a 30 mg/kg b.i.d. i.p. repeated, without AA (Table 6B), 13 h

Structure (SMILES): C[C@H]1Oc2ccc(F)cc2N(CCOC(=O)NCCN)C(=O)[C@H]1NC(=O)[C@@](C)(O)C(=O)NCC(F)(F)C(F)(F)F.Cl [Compound 11a, 2-((2R,3S)-7-Fluoro-3-((S)-2-hydroxy-2-methyl-3-oxo-3-(2,2,3,3,3-pentafluoropropylamino)propanamido)-2-methyl-4-oxo-3,4-dihydrobenzo[b][1,4]oxazepin-5(2H)-yl)ethyl 2-aminoethylcarbamate hydrochloride]
- hydrolysis of the linker in 11a to the free antagonist 8 ([1]; 10 mg/kg i.p.): never observed significant amounts
- plasma exposure, in words ([1]; 10 mg/kg i.p.): very low plasma exposure
- exposure in liver compared to kidney ([1]; 11a 10 mg/kg i.p.): approximately 4.5 fold
- 11a in kidney, relative amount (arbitrarily set to 100%) ([1]; 11a 10 mg/kg i.p., 0.5 h): (100) %
- 11a in liver, relative amount (11a in kidney = 100%) ([1]; 11a 10 mg/kg i.p., 0.5 h): (450) %
- 11a in kidney, relative amount (arbitrarily set to 100%) ([1]; 11a 10 mg/kg i.p., 4 h): (100) %
- 11a in liver, relative amount (11a in kidney = 100%) ([1]; 11a 10 mg/kg i.p., 4 h): (250) %
- 11a in kidney, relative amount (arbitrarily set to 100%) ([1]; 11a 10 mg/kg i.p., 7 h): (100) %
- 11a in liver, relative amount (11a in kidney = 100%) ([1]; 11a 10 mg/kg i.p., 7 h): (290) %
- formed 11a in plasma at all time-points ([1]; after 13a 10 mg/kg i.p.): below the limit of quantitation
- Plasma concentration of formed 11a ([1]; after 13a 10 mg/kg i.p., 0.5 h): BQL
- Plasma concentration of formed 11a ([1]; after 13a 10 mg/kg i.p., 4 h): BQL
- Plasma concentration of formed 11a ([1]; after 13a 10 mg/kg i.p., 7 h): BQL
- Plasma concentration of formed 11a ([1]; after 15b 10 mg/kg i.p., 7 h): BQL
- concentration at 0.5 h ([1]; kidney, 10 mg/kg i.p., 0.5 h, read-out: Kidney concentration of administered compound): 15500 ng/g
- concentration at 4 h ([1]; kidney, 10 mg/kg i.p., 4 h, read-out: Kidney concentration of administered compound): 1200 ng/g
- concentration at 7 h ([1]; kidney, 10 mg/kg i.p., 7 h, read-out: Kidney concentration of administered compound): 420 ng/g
- concentration at 0.5 h ([1]; liver, 10 mg/kg i.p., 0.5 h, read-out: Liver concentration of administered compound): 70000 ng/g
- concentration at 4 h ([1]; liver, 10 mg/kg i.p., 4 h, read-out: Liver concentration of administered compound): 3000 ng/g
- concentration at 7 h ([1]; liver, 10 mg/kg i.p., 7 h, read-out: Liver concentration of administered compound): 1200 ng/g
- concentration at 0.5 h ([1]; plasma, 10 mg/kg i.p., 0.5 h, read-out: Plasma concentration of administered compound): 97.8 ng/mL
- concentration at 4 h ([1]; plasma, 10 mg/kg i.p., 4 h, read-out: Plasma concentration of administered compound): 1.32 ng/mL
- concentration at 7 h ([1]; plasma, 10 mg/kg i.p., 7 h, read-out: Plasma concentration of administered compound): 2.08 ng/mL
- exposure of amine-SecrI (11a) in the Ac-γ-Glu-SecrI (13a) group, in words ([2]; 13a 30 mg/kg b.i.d., 12 h post administration, compared with 11a group): comparatively lower exposure
- exposure of kidney and liver with amine-SecrI (11a), in words ([2]; AA model, 11a 10 mg/kg b.i.d., 12 h post administration): high exposure of kidney and liver
- 11a in kidney, relative amount (arbitrarily set to 100%) [2, 4]: (100) %
- 11a in liver, relative amount (11a in kidney = 100%) [2, 4]: 68%
- Plasma concentration of formed 11a ([2]; AA-exposed mice, 13a 30 mg/kg b.i.d. i.p. repeated, 13 h): BQL
- concentration at 13 h ([2]; kidney, AA-exposed mice, 11a 10 mg/kg b.i.d. i.p. repeated, 13 h, read-out: Kidney concentration of 11a): 1830 ng/g
- concentration at 13 h ([2]; liver, AA-exposed mice, 11a 10 mg/kg b.i.d. i.p. repeated, 13 h, read-out: Liver concentration of 11a): 1250 ng/g
- concentration at 13 h ([2]; plasma, AA-exposed mice, 11a 10 mg/kg b.i.d. i.p. repeated, 13 h, read-out: Plasma concentration of 11a): 7.2 ng/mL
- Liver concentration of formed 11a [2, 5]: BQL
- Plasma concentration of formed 11a [2, 5]: BQL
- Plasma concentration of formed 11a ([3]; 0.25 h): BQL
- Plasma concentration of formed 11a ([3]; 0.5 h): BQL
- Plasma concentration of formed 11a ([3]; 4 h): BQL
- Liver concentration of formed 11a ([3]; 7 h): BQL
- Plasma concentration of formed 11a ([3]; 7 h): BQL
